Results taken from patent US20220073536A1 (Rigel Pharmaceuticals, Inc., priority 2003, published 2022).
Counter-ions that a name gives are not always drawn.

Experiments:
[1] = system: cultured human mast cells (CHMC); assay: CHMC low cell density ionomycin activation: tryptase assay; assay type: cell-based; details: low cell density CHMC, tryptase readout, 3 pt, read-out: LD Tryptase, CHMC, Iono, 3 pt
[2] = system: cultured human mast cells (CHMC); assay: CHMC low cell density IgE activation: tryptase assay; assay type: cell-based; details: low cell density CHMC, IgE activation, tryptase readout
How it was run: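 Fluorogenic readout of tryptase released into the supernatant (30 min substrate incubation, room temperature) measures degranulation. Cells were plated at low density (1000–1500/well, varied by donor) and triggered with anti-IgE for 30 min at 37 °C.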

[3] = 3 pt, read-out: LD Tryptase, CHMC, IgE, 3 pt
[4] = 8 pt, read-out: LD Tryptase, CHMC, IgE, 8 pt
[5] = Homo sapiens, Mast cell, 3 pt, read-out: LD Tryptase, CHMC, IgE, 3 pt
[6] = Homo sapiens, Mast cell, 8 pt, read-out: LD Tryptase, CHMC, IgE, 8 pt

Row | Compound | IC50 [1] | IC50 [2, 3] | IC50 [2, 4] | IC50 ([1]; Homo sapiens, Mast cell) | IC50 [2, 5] | IC50 [2, 6]
1 | COc1c(C)cc(Nc2ncc(F)c(N(C)c3ccc4c(c3)N(C)C(=O)C(C)(C)O4)n2)cc1C [Compound 1031] | – | – | – | > 10 µM | < 10 µM | –
2 | Cc1cc(Nc2ncc(F)c(N(C)c3ccc4c(c3)N(C)C(=O)C(C)(C)O4)n2)cc(Cl)c1OC1CCCC1 [Compound 1032, N2-(3-Chloro-4-cyclopentyloxy-5-methylphenyl)-5-fluoro-N4-methyl-N4-(3-oxo-2,2,4-trimethyl-benz[1,4]oxazin-6-yl)-2,4-pyrimidinediamine] | – | – | – | > 10 µM | > 10 µM | –
3 | COc1c(C)cc(Nc2ncc(F)c(Nc3ccc4c(c3)N(C)C(=O)C(C)(C)O4)n2)cc1C [Compound 1033] | – | – | – | < 10 µM | < 10 µM | < 10 µM
4 | Cc1cc(Nc2ncc(F)c(Nc3ccc4c(c3)N(C)C(=O)C(C)(C)O4)n2)cc(Cl)c1OC1CCCC1 [Compound 1034, N2-(3-Chloro-4-cyclopentyloxy-5-methylphenyl)-5-fluoro-N4-(3-oxo-2,2,4-trimethyl-benz[1,4]oxazin-6-yl)-2,4-pyrimidinediamine] | – | – | – | > 10 µM | < 10 µM | –
5 | CCOC(=O)COc1c(C)cc(Nc2ncc(F)c(Nc3ccc4c(n3)NC(=O)C(C)(C)O4)n2)cc1C [Compound 1038, N2-(3,5-Dimethyl-4-ethoxycarbonylmethyleneoxyphenyl)-N4-(2,2-dimethyl-3-oxo-4H-5-pyrid[1,4]oxazin-6-yl)-5-fluoro-2,4-pyrimidinediamine] | > 10 µM | – | < 10 µM | – | – | –
6 | Cc1cc(Nc2ncc(F)c(Nc3ccc4c(c3)NC(=O)C(C)(C)O4)n2)cc(Cl)c1OC(C)C [Compound 1039, N2-(3-Chloro-4-isopropoxy-5-methylphenyl)-N4-(2,2-dimethyl-3-oxo-4H-benz[1,4]oxazin-6-yl)-5-fluoro-2,4-pyrimidinediamine] | – | – | – | < 10 µM | – | < 10 µM
7 | CCOC(=O)COc1c(C)cc(Nc2ncc(F)c(Nc3ccc4c(n3)NC(=O)C(C)(C)O4)n2)cc1Cl [Compound 1042, N2-(3-Chloro-4-ethoxycarbonylmethyleneoxy-5-methylphenyl)-N4-(2,2-dimethyl-3-oxo-4H-5-pyrid[1,4]oxazin-6-yl)-5-fluoro-2,4-pyrimidinediamine] | > 10 µM | > 10 µM | – | – | – | –
8 | Cc1cc(Nc2ncc(F)c(Nc3ccc4c(n3)NC(=O)C(C)(C)O4)n2)cc(Cl)c1OCC(=O)NCC(O)CO (centres unmarked) [Compound 1043, N2-[3-Chloro-4-[N-(2,3-dihydroxypropyl)amino]carbonylmethyleneoxy-5-methylphenyl]-N4-(2,2-dimethyl-3-oxo-4H-5-pyrid[1,4]oxazin-6-yl)-5-fluoro-2,4-pyrimidinediamine] | > 10 µM | < 10 µM | < 10 µM | – | – | –
9 | Cc1cc(Nc2ncc(F)c(Nc3ccc4c(n3)NC(=O)C(C)(C)O4)n2)cc(C)c1OCC(=O)NC1CCCC1 [Compound 1044, N2-[3,5-Dimethyl-4-(N-cyclopentylamino)carbonylmethyleneoxyphenyl]-N4-(2,2-dimethyl-3-oxo-4H-5-pyrid[1,4]oxazin-6-yl)-5-fluoro-2,4-pyrimidinediamine] | > 10 µM | > 10 µM | > 10 µM | – | – | –
10 | CNC(=O)COc1cccc(Nc2ncc(F)c(Nc3ccc4c(c3)NC(=O)C(F)(F)O4)n2)c1 [Compound 1045, N4-(2,2-Difluoro-3-oxo-4H-benz[1,4]oxazin-6-yl)-5-fluoro-N2-[3-(N-methylamino)carbonylmethyleneoxyphenyl]-2,4-pyrimidinediamine Hydrogen Chloride Salt] | > 10 µM | < 10 µM | < 10 µM | – | – | –
11 | CNC(=O)COc1cccc(Nc2ncc(F)c(Nc3ccc4c(c3)NC(=O)C(F)(F)O4)n2)c1 [Compound 1046, N4-(2,2-Difluoro-3-oxo-4H-benz[1,4]oxazin-6-yl)-5-fluoro-N2-[3-(N-methylamino)carbonylmethyleneoxyphenyl]-2,4-pyrimidinediamine Methanesulfonic Acid Salt] | > 10 µM | < 10 µM | < 10 µM | – | – | –
12 | CC1(C)CNc2nc(Nc3nc(Cl)ncc3F)ccc2O1 [Compound 1051, 2-Chloro-N4-(3,4-dihydro-2,2-dimethyl-4H-5-pyrid[1,4]oxazin-6-yl)-5-fluoro-4-pyrimidineamine] | > 10 µM | > 10 µM | – | – | – | –
13 | Cn1ncc2ccc(Nc3ncc(F)c(Nc4ccc5c(n4)NCC(C)(C)O5)n3)cc21 [Compound 1052, N4-(3,4-Dihydro-2,2-dimethyl-4H-5-pyrid[1,4]oxazin-6-yl)-5-fluoro-N2-(1-methylindazol-6-yl)-2,4-pyrimidinediamine] | < 10 µM | < 10 µM | < 10 µM | – | – | –
14 | Cn1ncc2ccc(Nc3ncc(F)c(Nc4ccc5c(n4)NC(=O)C(C)(C)O5)n3)cc21 [Compound 1056, N4-(2,2-Dimethyl-3-oxo-4H-5-pyrid[1,4]oxazin-6-yl)-5-fluoro-N2-[1-methylindazol-6-yl]-2,4-pyrimidinediamine Hydrogen Chloride Salt] | > 10 µM | < 10 µM | < 10 µM | – | – | –
15 | Cn1ncc2ccc(Nc3ncc(F)c(Nc4ccc5c(n4)NC(=O)C(C)(C)O5)n3)cc21 [Compound 1057, N4-(2,2-Dimethyl-3-oxo-4H-5-pyrid[1,4]oxazin-6-yl)-5-fluoro-N2-[1-methylindazol-6-yl]-2,4-pyrimidinediamine p-Toluenesulfonic Acid Salt] | > 10 µM | < 10 µM | < 10 µM | – | – | –

Second part, the compound after the results:

Row | IC50 [1] | IC50 [2, 3] | IC50 [2, 4] | IC50 ([1]; Homo sapiens, Mast cell) | IC50 [2, 5] | IC50 [2, 6] | Compound
16 | > 10 µM | < 10 µM | < 10 µM | – | – | – | CC1(C)Oc2ccc(Nc3nc(Nc4cccc(-c5cocn5)c4)ncc3F)nc2NC1=O [Compound 1029, N4-(2,2-Dimethyl-3-oxo-4H-5-pyrid[1,4]oxazin-6-yl)-5-fluoro-N2-[3-(oxazol-4-yl)phenyl]-2,4-pyrimidinediamine]
17 | – | – | – | < 10 µM | < 10 µM | – | CN1C(=O)C(C)(C)Oc2ccc(N(C)c3nc(Nc4cccc(-c5cocn5)c4)ncc3F)cc21 [Compound 1030]
18 | – | – | – | < 10 µM | < 10 µM | < 10 µM | CC1(C)Oc2ccc(Nc3nc(Nc4cccc(-c5cocn5)c4)ncc3F)cc2NC1=O [Compound 1036, N4-(2,2-Dimethyl-3-oxo-4H-benz[1,4]oxazin-6-yl)-5-fluoro-N2-[3-(oxazol-4-yl)phenyl]-2,4-pyrimidinediamine]
19 | > 10 µM | – | < 10 µM | – | – | – | CNC(=O)COc1c(C)cc(Nc2ncc(F)c(Nc3ccc4c(n3)NC(=O)C(C)(C)O4)n2)cc1Cl [Compound 1037, N2-[3-Chloro-5-methyl-4-(N-methylamino)carbonylmethyleneoxyphenyl]-N4-(2,2-dimethyl-3-oxo-4H-5-pyrid[1,4]oxazin-6-yl)-5-fluoro-2,4-pyrimidinediamine]
20 | < 10 µM | – | > 10 µM | – | – | – | Cc1cc(Nc2ncc(F)c(Nc3ccc4c(n3)NC(=O)C(C)(C)O4)n2)cc(Cl)c1OC(C)C [Compound 1040, N2-(3-Chloro-4-isopropoxy-5-methylphenyl)-N4-(2,2-dimethyl-3-oxo-4H-5-pyrid[1,4]oxazin-6-yl)-5-fluoro-2,4-pyrimidinediamine]
21 | < 10 µM | < 10 µM | < 10 µM | – | – | – | CNC(=O)COc1c(C)cc(Nc2ncc(F)c(Nc3ccc4c(n3)NC(=O)C(C)(C)O4)n2)cc1C [Compound 1041, N2-[3,5-Dimethyl-4-(N-methylamino)carbonylmethyleneoxyphenyl]-N4-(2,2-dimethyl-3-oxo-4H-5-pyrid[1,4]oxazin-6-yl)-5-fluoro-2,4-pyrimidinediamine]
22 | – | – | – | > 10 µM | > 10 µM | < 10 µM | CC1(C)Oc2ccc(Nc3nc(Nc4ccc5cn[nH]c5c4)ncc3F)cc2NC1=O [Compound 1047, N4-(2,2-Dimethyl-3-oxo-4H-benz[1,4]oxazin-6-yl)-5-fluoro-N2-(indazol-6-yl)-2,4-pyrimidinediamine Methanesulfonic Acid Salt]
23 | > 10 µM | < 10 µM | < 10 µM | – | – | – | CCn1ncc2ccc(Nc3ncc(F)c(Nc4ccc5c(n4)NC(=O)C(C)(C)O5)n3)cc21 [Compound 1049, N4-(2,2-Dimethyl-3-oxo-4H-5-pyrid[1,4]oxazin-6-yl)-N2-(1-ethylindazol-6-yl)-5-fluoro-2,4-pyrimidinediamine]
24 | > 10 µM | < 10 µM | < 10 µM | – | – | – | CC(C)n1ncc2ccc(Nc3ncc(F)c(Nc4ccc5c(n4)NC(=O)C(C)(C)O5)n3)cc21 [Compound 1050, N4-(2,2-Dimethyl-3-oxo-4H-5-pyrid[1,4]oxazin-6-yl)-N2-(1-isopropylindazol-6-yl)-5-fluoro-2,4-pyrimidinediamine]
25 | > 10 µM | < 10 µM | < 10 µM | – | – | – | CNC(=O)COc1cccc(Nc2ncc(F)c(Nc3ccc4c(n3)NCC(C)(C)O4)n2)c1 [Compound 1053, N4-(3,4-Dihydro-2,2-dimethyl-4H-5-pyrid[1,4]oxazin-6-yl)-5-fluoro-N2-[3-(N-methylamino)carbonylmethyleneoxyphenyl]-2,4-pyrimidinediamine]
26 | > 10 µM | < 10 µM | < 10 µM | – | – | – | CNC(=O)c1ccc(Nc2ncc(F)c(Nc3ccc4c(n3)NC(=O)C(C)(C)O4)n2)cc1Cl [Compound 1054, N2-[3-Chloro-4-(N-methylamino)carbonylphenyl]-N4-(2,2-dimethyl-3-oxo-4H-5-pyrid[1,4]oxazin-6-yl)-5-fluoro-2,4-pyrimidinediamine]
27 | > 10 µM | < 10 µM | < 10 µM | – | – | – | CC1(C)Oc2ccc(Nc3nc(Nc4ccc5c(c4)OCCO5)ncc3F)nc2NC1=O [Compound 1055, N4-(2,2-Dimethyl-3-oxo-4H-5-pyrid[1,4]oxazin-6-yl)-N2-(3,4-ethylenedioxyphenyl)-5-fluoro-2,4-pyrimidinediamine]
